Data: ChEMBL document CHEMBL5352446, “Synthesis and biological evaluation of a novel c-Myc inhibitor against colorectal cancer via blocking c-Myc/Max heterodimerization and disturbing its DNA binding” (Eur J Med Chem, 2022)
pIC50: −log10 of the molar value. The source made the active and inactive calls. The rule behind the calls is not given here.

Assays:
HT-29 [1] = assay: Downregulation of c-Myc expression in human HT-29 cells at 10 uM incubated for 24 hrs by Western blot analysis; type: functional, cell-based
HT-29 [2] = assay: Induction of apoptosis in human HT-29 cells assessed as early apoptotic cells at 0.625 uM incubated for 24 hrs by FITC Annexin-V and PI staining based flow cytometry analysis (reference value: 2.15%); type: functional
HT-29 [3] = assay: Induction of apoptosis in human HT-29 cells assessed as viable cells at 2.5 uM incubated for 24 hrs by FITC Annexin-V and PI staining based flow cytometry analysis (reference value: 96.94%); type: functional; conditions: read-out: Activity
HT-29 [4] = assay: Antitumor activity against human HT-29 cells xenografted in BALB/c mouse assessed as tumor growth inhibition at 80 mg/kg, ip administered daily for 3 weeks by caliper method; type: functional; conditions: HT-29, 504 h, read-out: TGI
Homo sapiens = species: Homo sapiens; assay: Inhibition of human c-Myc (353 to 439 residues)/Max(S) (151 residues) expressed in Escherichia coli BL21(DE3) binding to biotinylated double-stranded DNA oligonucleotide 5'-CACCCGGTCACTGGCCTACAC-3' (unknown origin) at 20 uM preincubated for 90 mins followed by oligonucleotide addition for 25 mins by EMSA; conditions: time 115.0 min
HT-29 [5] = assay: Induction of apoptosis in human HT-29 cells assessed as upregulation of cleaved PARP expression incubated for 24 hrs by Western blot analysis; type: functional, cell-based; conditions: dose 2.5-10 µM
HCT-8 = assay: Antiproliferative activity against human HCT-8 cells incubated for 72 hrs by MTT assay; type: functional, cell-based; conditions: HCT-8, 72 h
HT-29 [6] = assay: cells; conditions: Homo sapiens, HT-29, 72 h
Description: Antiproliferative activity against human HT-29 cells incubated for 72 hrs by MTT assay

HT-29 [7] = assay: Induction of cell cycle arrest in human HT-29 cells assessed as accumulation of cells at S phase at 2.5 uM incubated for 24 hrs by propidium iodide staining based flow cytometry analysis (reference value: 12.01 %); type: functional
HT-29 [8] = assay: Induction of cell cycle arrest in human HT-29 cells assessed as accumulation of cells at G2 phase at 5 uM incubated for 24 hrs by propidium iodide staining based flow cytometry analysis (reference value: 16.33 %); type: functional
HT-29 [9] = assay: Induction of apoptosis in human HT-29 cells assessed as late apoptotic cells at 5 uM incubated for 24 hrs by FITC Annexin-V and PI staining based flow cytometry analysis (reference value: 0.78%); type: functional
[10] = Toxicity in BALB/c mouse xenografted with human HT-29 cells assessed as lung damage at 40 to 80 mg/kg, ip measured after 21 days by H and E staining based assay; type: organism-based; conditions: in vivo, 504 h, dose 40-80 mg/kg, time 21 day
HT-29 [11] = assay: Induction of cell cycle arrest in human HT-29 cells assessed as accumulation of cells at S phase at 0.625 uM incubated for 24 hrs by propidium iodide staining based flow cytometry analysis (reference value: 12.01 %); type: functional
HT-29 [12] = assay: Induction of apoptosis in human HT-29 cells assessed as viable cells at 0.625 uM incubated for 24 hrs by FITC Annexin-V and PI staining based flow cytometry analysis (reference value: 96.94%); type: functional; conditions: read-out: Activity
HT-29 [13] = assay: Induction of apoptosis in human HT-29 cells assessed as upregulation of cleaved caspase 3 expression incubated for 24 hrs by Western blot analysis; type: functional, cell-based; conditions: dose 2.5-10 µM
HT-29 [14] = assay: Induction of cell cycle arrest in human HT-29 cells assessed as accumulation of cells at G2 phase at 2.5 uM incubated for 24 hrs by propidium iodide staining based flow cytometry analysis (reference value: 16.33 %); type: functional
HT-29 [15] = assay: Induction of apoptosis in human HT-29 cells assessed as early apoptotic cells at 5 uM incubated for 24 hrs by FITC Annexin-V and PI staining based flow cytometry analysis (reference value: 2.15%); type: functional
HT-29 [16] = assay: Induction of cell cycle arrest in human HT-29 cells assessed as accumulation of cells at G2 phase at 1.25 uM incubated for 24 hrs by propidium iodide staining based flow cytometry analysis (reference value: 16.33 %); type: functional
HT-29 [17] = assay: Induction of cell cycle arrest in human HT-29 cells assessed as accumulation of cells at G1 phase at 1.25 uM incubated for 24 hrs by propidium iodide staining based flow cytometry analysis (reference value: 65.37 %); type: functional
HCT-116 [18] = assay: Downregulation of c-Myc expression in human HCT-116 cells at 10 uM incubated for 24 hrs by Western blot analysis; type: functional, cell-based
HT-29 [19] = assay: Induction of cell cycle arrest in human HT-29 cells assessed as accumulation of cells at G1 phase at 5 uM incubated for 24 hrs by propidium iodide staining based flow cytometry analysis (reference value: 65.37 %); type: functional
HT-29 [20] = assay: Induction of apoptosis in human HT-29 cells assessed as necrotic cells at 10 uM incubated for 24 hrs by FITC Annexin-V and PI staining based flow cytometry analysis (reference value: 0.13%); type: functional
HT-29 [21] = assay: Induction of apoptosis in human HT-29 cells assessed as viable cells at 5 uM incubated for 24 hrs by FITC Annexin-V and PI staining based flow cytometry analysis (reference value: 96.94%); type: functional; conditions: read-out: Activity
HT-29 [22] = assay: Induction of apoptosis in human HT-29 cells assessed as upregulation of BAD expression incubated for 24 hrs by Western blot analysis; type: functional, cell-based; conditions: dose 2.5-10 µM
HT-29 [23] = assay: Induction of apoptosis in human HT-29 cells assessed as early apoptotic cells at 10 uM incubated for 24 hrs by FITC Annexin-V and PI staining based flow cytometry analysis (reference value: 2.15%); type: functional
L02 = assay: Cytotoxicity against human L02 cells incubated for 72 hrs by MTT assay; type: toxicity, cell-based; conditions: l02, 72 h
[24] = Toxicity in BALB/c mouse xenografted with human HT-29 cells assessed as spleen damage at 40 to 80 mg/kg, ip measured after 21 days by H and E staining based assay; type: organism-based; conditions: in vivo, 504 h, dose 40-80 mg/kg, time 21 day
HCT-116 [25] = assay: Inhibition of colony formation in human HCT-116 cells measured after 14 days by crystal violet staining based assay; type: functional, cell-based; conditions: dose 0.25-2 µM, time 14.0 day
HT-29 [26] = assay: Induction of apoptosis in human HT-29 cells assessed as viable cells at 1.25 uM incubated for 24 hrs by FITC Annexin-V and PI staining based flow cytometry analysis (reference value: 96.94%); type: functional; conditions: read-out: Activity
HT-29 [27] = assay: Downregulation of c-Myc expression in human […] cells incubated for 24 hrs by Western blot analysis; type: functional, cell-based; conditions: dose 2.5-10 µM

COc1cc(Oc2ccc(Nc3ccc(CCCO)cc3)cc2)cc(OC)c1CNCCc1ccc(C(F)(F)F)cc1
Activity (HT-29 [1]): Active
Activity (HT-29 [2]): 5.9%
viability at 2.5 µM (HT-29 [3]): 69.6%
inhibition in vivo at 80 mg/kg (HT-29 [4]): 78.4%
inhibition (Homo sapiens): 100%
Activity (HT-29 [5]): Dose-Dependent Effect
pIC50 (HCT-8): 5.51
pIC50 (HT-29 [6]): 6.54
Activity (HT-29 [7]): 14.32%
Activity (HT-29 [8]): 8.51%
Activity (HT-29 [9]): 7.67%
Activity [10]: Non-Toxic
Activity (HT-29 [11]): 14.41%
viability at 0.625 µM (HT-29 [12]): 89.5%
Activity (HT-29 [13]): Dose-Dependent Effect
Activity (HT-29 [14]): 8.23%
Activity (HT-29 [15]): 22.05%
Activity (HT-29 [16]): 11.24%
Activity (HT-29 [17]): 74.95%
Activity (HCT-116 [18]): Active
Activity (HT-29 [19]): 76.86%
Activity (HT-29 [20]): 1.87%
viability at 5 µM (HT-29 [21]): 69%
Activity (HT-29 [22]): Dose-Dependent Effect
Activity (HT-29 [23]): 29.06%
Activity (L02): Non-Toxic
Activity [24]: Non-Toxic
inhibition (HCT-116 [25]): Dose-Dependent Effect
viability at 1.25 µM (HT-29 [26]): 81%
Activity (HT-29 [27]): Dose-Dependent Effect
